Data set [1] relates to STZ-treated NOD/Scid-(IL-2Rγ-null) mice. The data set can be described thus: Multiple low-dose STZ model in immune-deficient NOD/Scid-(IL-2Rγ-null) mice. Format: in vivo, mouse. The note with it: multiple low-dose STZ (data not shown for si-eIF5A). How it is done: To test the role of eIF5A in cytokine-mediated islet dysfunction, efforts were made to identify a mouse model of islet inflammation. The multiple low dose streptozotocin (STZ) model, in which mice are subjected to five daily intraperitoneal doses (at 55 mg/kg body weight) of STZ, is considered to provoke local islet inflammation and cytokine release, in part through the recruitment of CD11c+ dendritic cells that release pro-inflammatory cytokines in the area of STZ-induced cellular destruction (27 and 28).
As noted, low-dose STZ-induced islet dysfunction involves at least two mechanisms: an inflammatory mechanism that is dependent upon cytokine release from immune cells and a direct toxic mechanism on the islet itself. […] Next, islets from 3 C57BL/6J mice per group 24 h after the initial STZ treatment were isolated and pooled and their iNOS content determined by immunoblot. […]
Studies in vivo: Daily STZ injections to groups of 10 week-old C57BL/6J and NOD/Scid-(IL-2Rγ-null) mice proceeded as described previously (30) at a dose of 55 mg STZ per kg mouse weight for 5 days. […] Serum was analyzed using a Luminex system (Millipore) and a mouse cytokine/chemokines Panel 1 mutliplex kit (Millipore).

The test system of the next data set is eIF5A-Hyp. The data set can be described thus: New hypusine formation (3H-spermidine incorporation) in mouse islets. The note with it: GC7 125 μM overnight. Format: cell-based. An excerpt:
eIF5A1 and eIF5A2 are the only proteins known to contain the unique amino acid hypusine at position 50. Hypusine is formed as a posttranslational modification of residue Lys50 in a reaction requiring spermidine and catalyzed by the sequential actions of the enzymes deoxyhypusine synthase (DHS) and deoxyhypusine hydroxylase (DOHH) (Chen, K Y, and Liu, A Y. Biochemistry and function of hypusine formation on eukaryotic initiation factor 5A. Biol Signals. 1997; 6(3):105-109). […] To further investigate the mechanism of eIF5A-regulated translation of Nos2, studies were performed following overnight incubation of cells with mimosine (an inhibitor of DOHH) and GC7 (an inhibitor of DHS). […] Similar data using GC7 were obtained in primary mouse islets (data not shown) and in human islets (FIGS. 5F and 5G). […]
Measurement of hvpusination: Approximately 100 islets or 1×10^6 INS-1 cells per condition were incubated with 1.5 μCi ^3H-spermidine (Perkin Elmer) in the presence of 1 mM aminoguanidine. […] Gels were visualized by fluorography, and bands were quantitated using Kodak Molecular Imaging Software v. […]

The next data set relates to Nos2 mRNA. The data set can be described thus: Nuclear export of Nos2 mRNA, subcellular fractionation of cytokine-treated INS-1 cells. Type of data set: cell-based, rat. The note with it: cytokine-treated; GC7 100 μM overnight or leptomycin B 20 ng/ml 3 h. How it is done: Subcellular fractionation studies: Nuclear and cytoplasmic fractions of 1×10^6 cytokine-treated INS-1 cells exposed to vehicle, leptomycin B (20 ng/ml), or GC7 (100 μM) were prepared using the method of Dignam, et al. (76). Total RNA was isolated from nuclear and cytoplasmic fractions using the RNeasy® RNA isolation kit (Qiagen).
Quantitative RT-PCR: Five micrograms of total RNA from islets or INS-1 cells were reverse-transcribed as detailed previously (77). cDNA was subjected to quantitative PCR using SYBR Green-based technology and published primers for mouse Ins1/2 pre-mRNA (78) and QuantiTech® primers (Qiagen) for all other mouse genes. The Assay on Demand® kit (Applied Biosystems) was used to amplify rat genes in INS-1 cells and human genes in human islets. Thermal cycling was performed according to manufacturer's instructions, and the identity of each PCR product was verified by automated sequencing. All samples were corrected for total input RNA as quantitated by an Experion® (Bio-Rad) bioanalyzer. All data represent the average of triplicate determinations from at least 3 independent experiments.

For “5′-AACGGAAUGACUUCCAGCUGA-3′ (siSTABLE modification, further chemistry not given here) [si-eIF5A]”, in data set [1], the “protection against glucose intolerance” value was “did not protect against glucose intolerance”.

`NCCCCCCCN=C(N)N` [GC7]: in the data set on eIF5A-Hyp, the “new hypusine formation in mouse islets” value is reported as “effectively inhibits new hypusine formation”. For the same compound, in the data set on Nos2 mRNA, the “distribution of mRNAs between nuclear and cytoplasmic fractions” value is “relative nuclear retention of Nos2 mRNA”.

(Values after patent publication US20120196918A1, “PREVENTING ISLET INFLAMMATION AND DYSFUNCTION AND MAINTAINING PROPER GLUCOSE LEVELS BY CONTROLLING eIF5A AND ITS HYPUSINATION” (priority 2009, published 2012).)
